{
  "source": "patent US7351431B2",
  "about": "“Freeze-dried pharmaceutical preparation” (Dainippon Sumitomo Pharma Co., Ltd., priority 2001, dated 2008)",
  "assay": "Content of drug solution in 2-methyl-2-propanol during stirring by Polytron or stirrer",
  "assay_type": "physicochemical",
  "conditions": "about 40° C.; for Content [vs. 0 h %]: about 4.0 mg/mL in 2-methyl-2-propanol",
  "protocol": "Then, whether the content and analogous substance are affected by stirring in a homomixer was considered. To cis[((1R,2R)-1,2-cyclohexanediamine-N,N′)bis(tetradecanoyloxy)]platinum(II) monohydrate was added 2-methyl-2-propanol to a liquid formulation concentration of about 4.0 mg/mL. This was prepared in two Erlenmeyer flasks. One Erlenmeyer flask was stirred with a stirrer at a liquid temperature of about 40° C. after ultrasonication. The other Erlenmeyer flask was stirred at about 10000 rpm at a liquid temperature of about 40° C. using Polytron pulverizer (pulverization diameter G8) manufactured by IKA that pulverizes and dissolves by the same mechanism as a homogenizer. The stirring was continued with the time point when the bulk was dissolved as 0 hr. The drug solution was sampled with the lapse of time and the dissolution state was observed and the content and analogous substances were measured.",
  "data": [
    {"smiles": "CCCCCCCCCCCCCC(=O)[O][Pt]1([O]C(=O)CCCCCCCCCCCCC)[NH][C@@H]2CCCC[C@H]2[NH]1", "note": "[bulk, cis[((1R,2R)-1,2-cyclohexanediamine-N,N′)bis(tetradecanoyloxy)]platinum(II) monohydrate]", "values": [
      {"measurement": "Content [vs. 0 h %]", "setting": "Polytron, stirring time 0", "result": 100, "unit": "%"},
      {"measurement": "Content [vs. 0 h %]", "setting": "Polytron, stirring time 0.5 h", "result": 99.5, "unit": "%"},
      {"measurement": "Content [vs. 0 h %]", "setting": "Polytron, stirring time 1 h", "result": 99.4, "unit": "%"},
      {"measurement": "Content [vs. 0 h %]", "setting": "Polytron, stirring time 2 h", "result": 100.9, "unit": "%"},
      {"measurement": "Content and analogous substances with the lapse of stirring time", "setting": "any stirring method (Polytron or stirrer)", "result": "showed no change"},
      {"measurement": "Content [vs. 0 h %]", "setting": "stirrer, stirring time 0", "result": 100, "unit": "%"},
      {"measurement": "Content [vs. 0 h %]", "setting": "stirrer, stirring time 0.5 h", "result": 100.9, "unit": "%"},
      {"measurement": "Content [vs. 0 h %]", "setting": "stirrer, stirring time 1 h", "result": 100.2, "unit": "%"},
      {"measurement": "Content [vs. 0 h %]", "setting": "stirrer, stirring time 2 h", "result": 103.1, "unit": "%"}
    ]}
  ]
}
